For this experiment, the system named is MV-4-11 cells. Kind of experiment: Gene expression microarray analysis (Affymetrix PrimeView) and GSEA. The format is cell-based, human. Details: RFU PODN (11730768_x_at) / Fold change /veh PODN (11730768_x_at) / RFU LINC00158 (11744669_a_at) / Fold change /veh LINC00158 (11744669_a_at) / RFU DUSP10 (11751237_a_at) / Fold change /veh DUSP10 (11751237_a_at) / RFU ID3 (11757404_x_at) / Fold change /veh ID3 (11757404_x_at) / RFU PLEKHG5 (11737974_s_at) / Fold change /veh PLEKHG5 (11737974_s_at) / RFU LRRC4B (11730491_at) / Fold change /veh LRRC4B (11730491_at) / RFU GIMAP4 (11747438_a_at) / Fold change /veh GIMAP4 (11747438_a_at) / RFU KRT8 (11758183_x_at) / Fold change /veh KRT8 (11758183_x_at) / RFU CNN1 (11734310_a_at) / Fold change /veh CNN1 (11734310_a_at) / RFU VPS37D (11726825_at) / Fold change /veh VPS37D (11726825_at) / RFU C10orf10 (11716522_x_at) / Fold change /veh C10orf10 (11716522_x_at) / RFU KIR2DL2 /// KIR2DL4 /// KIR2DL5A /// KIR2DL5B /// KIR2DS1 /// KIR2DS2 /// KIR2DS3 /// KIR2DS4 /// KIR3DL3 /// KIR3DL3 /// KIR3DS1 (11738374_at) / Fold change /veh KIR2DL2 /// KIR2DL4 /// KIR2DL5A /// KIR2DL5B /// KIR2DS1 /// KIR2DS2 /// KIR2DS3 /// KIR2DS4 /// KIR3DL3 /// KIR3DL3 /// KIR3DS1 (11738374_at) / RFU C1QL1 (11718748_at) / Fold change /veh C1QL1 (11718748_at) / RFU TMPRSS4 (11747572_a_at) / Fold change /veh TMPRSS4 (11747572_a_at) / RFU HAMP (11756126_x_at) / Fold change /veh HAMP (11756126_x_at) / RFU RNFT2 (11725882_a_at) / Fold change /veh RNFT2 (11725882_a_at) / RFU NR4A2 (11747474_a_at) / Fold change /veh NR4A2 (11747474_a_at) / RFU ABCC12 (11746883_a_at) / Fold change /veh ABCC12 (11746883_a_at) / RFU TMEM136 (11760407_x_at) / Fold change /veh TMEM136 (11760407_x_at) / RFU CLDN22 /// WWC2 (11732394_at) / Fold change /veh CLDN22 /// WWC2 (11732394_at) / RFU HLA-DPB1 (11760878_x_at) / Fold change /veh HLA-DPB1 (11760878_x_at) / RFU SPINT1 (11716480_a_at) / Fold change /veh SPINT1 (11716480_a_at) / RFU GAP43 (11754022_s_at) / Fold change /veh GAP43 (11754022_s_at) / RFU A4GNT (11735810_at) / Fold change /veh A4GNT (11735810_at) / RFU PRB3 (11715151_x_at) / Fold change /veh PRB3 (11715151_x_at) / RFU TUBB4B (11761932_at) / Fold change /veh TUBB4B (11761932_at) / RFU CAPN14 (11732068_a_at) / Fold change /veh CAPN14 (11732068_a_at) / RFU TMCC2 (11721928_a_at) / Fold change /veh TMCC2 (11721928_a_at) / RFU IRGQ (11745062_a_at) / Fold change /veh IRGQ (11745062_a_at) / RFU FAM174B (11720279_a_at) / Fold change /veh FAM174B (11720279_a_at) / RFU TMPRSS4 (11748680_a_at) / Fold change /veh TMPRSS4 (11748680_a_at) / RFU FAM212B (11763350_a_at) / Fold change /veh FAM212B (11763350_a_at) / RFU PLEKHG5 (11743358_a_at) / Fold change /veh PLEKHG5 (11743358_a_at) / RFU ZSCAN30 (11745921_a_at) / Fold change /veh ZSCAN30 (11745921_a_at) / RFU CMKLR1 (11741424_a_at) / Fold change /veh CMKLR1 (11741424_a_at) / RFU LOC101060620 /// MAPK8IP1 (11723275_at) / Fold change /veh LOC101060620 /// MAPK8IP1 (11723275_at) / RFU SPTSSB (11747773_x_at) / Fold change /veh SPTSSB (11747773_x_at) / RFU PRSS12 (11739890_at) / Fold change /veh PRSS12 (11739890_at) / RFU BIN1 (11741810_x_at) / Fold change /veh BIN1 (11741810_x_at) / RFU WNT11 (11732464_a_at) / Fold change /veh WNT11 (11732464_a_at) / RFU C10orf10 (11716521_a_at) / Fold change /veh C10orf10 (11716521_a_at) / RFU C5orf56 (11738089_at) / Fold change /veh C5orf56 (11738089_at) / RFU CYB561 (11721691_x_at) / Fold change /veh CYB561 (11721691_x_at) / RFU ANKRD19P (11752326_a_at) / Fold change /veh ANKRD19P (11752326_a_at) / RFU OR2T12 /// OR2T33 /// OR2T8 (11738714_s_at) / Fold change /veh OR2T12 /// OR2T33 /// OR2T8 (11738714_s_at) / RFU VCAN (11748164_a_at) / Fold change /veh VCAN (11748164_a_at) / RFU JSRP1 (11732532_at) / Fold change /veh JSRP1 (11732532_at) / RFU KRTAP10-11 (11738290_x_at) / Fold change /veh KRTAP10-11 (11738290_x_at) / RFU MYO3A (11730013_a_at) / Fold change /veh MYO3A (11730013_a_at) / RFU EBF3 (11725865_a_at) / Fold change /veh EBF3 (11725865_a_at) / RFU CAMK2N1 (11719241_x_at) / Fold change /veh CAMK2N1 (11719241_x_at) / RFU C5orf56 (11738088_a_at) / Fold change /veh C5orf56 (11738088_a_at) / RFU OLFML3 (11715873_a_at) / Fold change /veh OLFML3 (11715873_a_at) / RFU LOC100653217 /// NTM (11731650_a_at) / Fold change /veh LOC100653217 /// NTM (11731650_a_at) / RFU MAPK11 (11762145_a_at) / Fold change /veh MAPK11 (11762145_a_at) / RFU FIZ1 (11724087_x_at) / Fold change /veh FIZ1 (11724087_x_at) / RFU OASL (11726364_x_at) / Fold change /veh OASL (11726364_x_at) / RFU SOX15 (11748057_x_at) / Fold change /veh SOX15 (11748057_x_at) / RFU CD79A (11719716_a_at) / Fold change /veh CD79A (11719716_a_at) / RFU HIST1H1D (11736915_at) / Fold change /veh HIST1H1D (11736915_at) / RFU CASKIN2 (11723855_a_at) / Fold change /veh CASKIN2 (11723855_a_at) / RFU LOC730098 (11760151_x_at) / Fold change /veh LOC730098 (11760151_x_at) / RFU OR4N2 (11742367_at) / Fold change /veh OR4N2 (11742367_at) / RFU PRRT2 (11749266_a_at) / Fold change /veh PRRT2 (11749266_a_at) / RFU SNX32 (11753110_a_at) / Fold change /veh SNX32 (11753110_a_at) / RFU CDHR5 (11726645_a_at) / Fold change /veh CDHR5 (11726645_a_at) / RFU RCAN1 (11760418_a_at) / Fold change /veh RCAN1 (11760418_a_at) / RFU FAM167A (11723789_a_at) / Fold change /veh FAM167A (11723789_a_at) / RFU FAM26E (11764081_at) / Fold change /veh FAM26E (11764081_at) / RFU ISYNA1 (11749810_s_at) / Fold change /veh ISYNA1 (11749810_s_at) / RFU ACY1 (11761880_at) / Fold change /veh ACY1 (11761880_at) / RFU 11764098_at / Fold change /veh 11764098_at / RFU SAMD14 (11745864_x_at) / Fold change /veh SAMD14 (11745864_x_at) / RFU NPB (11741838_a_at) / Fold change /veh NPB (11741838_a_at) / RFU TMPRSS6 (11731388_a_at) / Fold change /veh TMPRSS6 (11731388_a_at) / RFU KRTAP10-2 (11738614_at) / Fold change /veh KRTAP10-2 (11738614_at) / RFU ARHGAP8 /// PRR5-ARHGAP8 (11727945_x_at) / Fold change /veh ARHGAP8 /// PRR5-ARHGAP8 (11727945_x_at) / RFU KRTAP5-7 /// NADSYN1 (11734609_at) / Fold change /veh KRTAP5-7 /// NADSYN1 (11734609_at) / RFU RASL12 (11751679_a_at) / Fold change /veh RASL12 (11751679_a_at) / RFU CDKN2B (11736163_a_at) / Fold change /veh CDKN2B (11736163_a_at) / RFU PRF1 (11729649_at) / Fold change /veh PRF1 (11729649_at) / RFU, ZNF638 /// ZNF638-IT1 / Fold change vs veh, ZNF638 /// ZNF638-IT1 / RFU, PANK3 / Fold change vs veh, PANK3 / RFU, SH3YL1 / Fold change vs veh, SH3YL1 / RFU, ZEB2 / Fold change vs veh, ZEB2 / RFU, NRIP1 / Fold change vs veh, NRIP1 / RFU, PTTG1IP / Fold change vs veh, PTTG1IP / RFU, CAPN2 / Fold change vs veh, CAPN2 / RFU, MED14 / Fold change vs veh, MED14 / RFU, SNORA58 / Fold change vs veh, SNORA58 / RFU, C1orf63 / Fold change vs veh, C1orf63 / RFU, LRRFIP1 / Fold change vs veh, LRRFIP1 / RFU, NDUFAF7 / Fold change vs veh, NDUFAF7 / RFU, SLC12A2 / Fold change vs veh, SLC12A2 / RFU, IBTK / Fold change vs veh, IBTK / RFU, ESF1 / Fold change vs veh, ESF1 / Fold change vs veh, TMEM50B / RFU, TAOK1 / Fold change vs veh, TAOK1 / RFU, ACBD3 / Fold change vs veh, ACBD3 / RFU, TMA16 / Fold change vs veh, TMA16 / RFU, RWDD3 / Fold change vs veh, RWDD3 / RFU, BCAT1 / Fold change vs veh, BCAT1 / RFU, EDEM3 / Fold change vs veh, EDEM3 / RFU, TMEM33 / Fold change vs veh, TMEM33 / RFU, WDR75 / Fold change vs veh, WDR75 / RFU, AHCTF1 / Fold change vs veh, AHCTF1 / RFU, TFRC / Fold change vs veh, TFRC / RFU, ZDHHC17 / Fold change vs veh, ZDHHC17 / RFU, NOM1 / Fold change vs veh, NOM1 / RFU, ARL8B / Fold change vs veh, ARL8B / RFU, ZBTB11 / Fold change vs veh, ZBTB11 / RFU, TAMM41 / Fold change vs veh, TAMM41 / RFU, KIAA1704 /// LOC100996395 / Fold change vs veh, KIAA1704 /// LOC100996395 / RFU, ING1 / Fold change vs veh, ING1 / RFU, TRMT61B / Fold change vs veh, TRMT61B / RFU, FUBP3 / Fold change vs veh, FUBP3 / RFU, TP53 / Fold change vs veh, TP53 / RFU, TNKS2 / Fold change vs veh, TNKS2 / RFU, ZFP14 / Fold change vs veh, ZFP14 / RFU, ACTR2 / Fold change vs veh, ACTR2 / RFU, PPP3R1 / Fold change vs veh, PPP3R1 / RFU, PIK3R1 / Fold change vs veh, PIK3R1 / RFU, HNRNPA1 / Fold change vs veh, HNRNPA1 / RFU, RNF170 / Fold change vs veh, RNF170 / RFU, ZNF28 / Fold change vs veh, ZNF28 / RFU, RNGTT / Fold change vs veh, RNGTT / RFU, OGT / Fold change vs veh, OGT / RFU, BRD1 / Fold change vs veh, BRD1 / RFU, MARS / Fold change vs veh, MARS / RFU, ZNF655 / Fold change vs veh, ZNF655 / RFU, FAHD1 / Fold change vs veh, FAHD1 / RFU, BDP1 / Fold change vs veh, BDP1 / RFU, LRRCC1 / Fold change vs veh, LRRCC1 / RFU, ARID1A / Fold change vs veh, ARID1A / RFU, ZNF146 / Fold change vs veh, ZNF146 / RFU, ZNF330 / Fold change vs veh, ZNF330 / RFU, GPN3 / Fold change vs veh, GPN3 / RFU, C9orf123 / Fold change vs veh, C9orf123 / RFU, N4BP2L2 / Fold change vs veh, N4BP2L2 / RFU, ARFIP1 / Fold change vs veh, ARFIP1 / RFU, FAM179B / Fold change vs veh, FAM179B / RFU, BCL10 / Fold change vs veh, BCL10 / RFU, UHRF1BP1L / Fold change vs veh, UHRF1BP1L / RFU, BET1 / Fold change vs veh, BET1 / RFU, CNOT2 / Fold change vs veh, CNOT2 / RFU, ZNF268 / Fold change vs veh, ZNF268 / Fold change vs veh, ZNF507 / RFU, DGCR2 / Fold change vs veh, DGCR2 / RFU, WDSUB1 / Fold change vs veh, WDSUB1 / Fold change vs veh, HSP90B1 /// MIR3652 / RFU, ADSS / Fold change vs veh, ADSS / RFU, GK / Fold change vs veh, GK / RFU, ZNF148 / Fold change vs veh, ZNF148 / RFU, TAF9 / Fold change vs veh, TAF9 / RFU, SLC1A5 / Fold change vs veh, SLC1A5 / RFU, SLMO2 / Fold change vs veh, SLMO2 / RFU, ABCC4 / Fold change vs veh, ABCC4 / RFU, LOC101060439 /// RAP1B / Fold change vs veh, LOC101060439 /// RAP1B / RFU, RFX7 / Fold change vs veh, RFX7 / RFU, GTPBP10 / Fold change vs veh, GTPBP10 / RFU, CNEP1R1 / Fold change vs veh, CNEP1R1 / RFU, BIVM-ERCC5 /// ERCC5 / Fold change vs veh, BIVM-ERCC5 /// ERCC5 / RFU, ILF3 / Fold change vs veh, ILF3 / RFU 11762660_at / Fold change /veh 11762660_at / RFU VCAN (11757783_s_at) / Fold change /veh VCAN (11757783_s_at) / RFU DDX43 (11728927_at) / Fold change /veh DDX43 (11728927_at) / RFU KRT8 (11758188_x_at) / Fold change /veh KRT8 (11758188_x_at) / RFU NKD1 (11759106_at) / Fold change /veh NKD1 (11759106_at) / RFU SRD5A1 (11742802_a_at) / Fold change /veh SRD5A1 (11742802_a_at) / RFU TPSAB1 /// TPSB2 (11721975_s_at) / Fold change /veh TPSAB1 /// TPSB2 (11721975_s_at) / RFU GSTM3 (11746129_a_at) / Fold change /veh GSTM3 (11746129_a_at) / RFU IL23R (11737362_x_at) / Fold change /veh IL23R (11737362_x_at) / RFU TMEM51 (11727254_a_at) / Fold change /veh TMEM51 (11727254_a_at) / RFU PIWIL2 (11732686_x_at) / Fold change /veh PIWIL2 (11732686_x_at) / RFU ORM1 (11744905_x_at) / Fold change /veh ORM1 (11744905_x_at) / RFU CCDC152 (11743942_at) / Fold change /veh CCDC152 (11743942_at) / RFU ECM1 (11717891_a_at) / Fold change /veh ECM1 (11717891_a_at) / RFU IL23R (11748794_a_at) / Fold change /veh IL23R (11748794_a_at) / RFU TNFAIP8L3 (11732012_x_at) / Fold change /veh TNFAIP8L3 (11732012_x_at) / RFU MBOAT4 (11741988_at) / Fold change /veh MBOAT4 (11741988_at) / RFU 11764193_at / Fold change /veh 11764193_at / RFU TMEM53 (11763286_at) / Fold change /veh TMEM53 (11763286_at) / RFU MAGEB2 (11727129_at) / Fold change /veh MAGEB2 (11727129_at) / RFU TMEM200A (11744735_a_at) / Fold change /veh TMEM200A (11744735_a_at) / RFU CCDC152 (11751479_a_at) / Fold change /veh CCDC152 (11751479_a_at) / RFU FAM211A (11726209_a_at) / Fold change /veh FAM211A (11726209_a_at) / RFU RGS16 (11746705_a_at) / Fold change /veh RGS16 (11746705_a_at) / RFU VCAN (11755009_s_at) / Fold change /veh VCAN (11755009_s_at) / RFU RHOB (11743442_s_at) / Fold change /veh RHOB (11743442_s_at) / RFU RGS16 (11720943_a_at) / Fold change /veh RGS16 (11720943_a_at) / RFU RGS16 (11720944_at) / Fold change /veh RGS16 (11720944_at) / RFU, VPS4B / Fold change vs veh, VPS4B / RFU, CREB1 / Fold change vs veh, CREB1 / RFU, DNAJC13 / Fold change vs veh, DNAJC13 / RFU, GNAQ / Fold change vs veh, GNAQ / RFU, CDK5R1 / Fold change vs veh, CDK5R1 / RFU, ZRANB3 / Fold change vs veh, ZRANB3 / RFU, CUL4A / Fold change vs veh, CUL4A / RFU, CCNY / Fold change vs veh, CCNY / RFU, UFL1 / Fold change vs veh, UFL1 / RFU, COG3 / Fold change vs veh, COG3 / RFU, DIAPH2 / Fold change vs veh, DIAPH2 / RFU, SKA2 / Fold change vs veh, SKA2 / RFU, AFF3 / Fold change vs veh, AFF3 / RFU, LMF1 / Fold change vs veh, LMF1 / RFU, IPO11 / Fold change vs veh, IPO11 / RFU, DFFB / Fold change vs veh, DFFB / RFU, FOXP1 / Fold change vs veh, FOXP1 / RFU, CARD8 / Fold change vs veh, CARD8 / RFU, STRN3 / Fold change vs veh, STRN3 / RFU, ADK / Fold change vs veh, ADK / RFU, RASSF2 / Fold change vs veh, RASSF2 / RFU, WIPF1 / Fold change vs veh, WIPF1 / RFU, LARP1B / Fold change vs veh, LARP1B / RFU, RASA1 / Fold change vs veh, RASA1 / RFU, RB1 / Fold change vs veh, RB1 / RFU, PPFIA1 / Fold change vs veh, PPFIA1 / RFU, MAT2A / Fold change vs veh, MAT2A / RFU, CCT5 / Fold change vs veh, CCT5 / RFU, WDR92 / Fold change vs veh, WDR92 / RFU, CUX1 / Fold change vs veh, CUX1 / RFU, TTC7A / Fold change vs veh, TTC7A / RFU, TMEM135 / Fold change vs veh, TMEM135 / RFU, DEPTOR / Fold change vs veh, DEPTOR / RFU, CPM / Fold change vs veh, CPM / RFU, DNAJB6 / Fold change vs veh, DNAJB6 / RFU, CACNA2D3 / Fold change vs veh, CACNA2D3 / RFU, DTX4 / Fold change vs veh, DTX4 / RFU, TFCP2 / Fold change vs veh, TFCP2 / RFU, GMCL1 /// GMCL1P1 / Fold change vs veh, GMCL1 /// GMCL1P1 / RFU, AEBP2 / Fold change vs veh, AEBP2 / RFU, SNHG1 /// SNORD22 /// SNORD25 /// SNORD26 /// SNORD27 /// SNORD28 /// SNORD29 /// SNORD31 / Fold change vs veh, SNHG1 /// SNORD22 /// SNORD25 /// SNORD26 /// SNORD27 /// SNORD28 /// SNORD29 /// SNORD31 / Fold change (Aza/veh), C12orf56 (ProbeSet 11735607_a_at) / Fold change (ACY-1035/veh), C12orf56 (ProbeSet 11735607_a_at) / Fold change (Aza/veh), FGFR1OP (ProbeSet 11751329_s_at) / Fold change (ACY-1035/veh), FGFR1OP (ProbeSet 11751329_s_at) / Fold change (Aza/veh), VPS36 (ProbeSet 11739960_a_at) / Fold change (ACY-1035/veh), VPS36 (ProbeSet 11739960_a_at) / RFU SYPL1 (11715823_x_at) / Fold change /veh SYPL1 (11715823_x_at) / RFU IGFBP7 (11715501_s_at) / Fold change /veh IGFBP7 (11715501_s_at) / RFU REEP3 (11722064_at) / Fold change /veh REEP3 (11722064_at) / RFU IGLL1 (11728026_x_at) / Fold change /veh IGLL1 (11728026_x_at): dose or concentration left out as unconfirmed. Conditions: MV-4-11 cells, 48 hours.

We go through 1 molecule from article PMC5218480 (PLoS ONE, 2017).

As for `Nc1ncn([C@@H]2O[C@H](CO)[C@@H](O)[C@H]2O)c(=O)n1` [azacitidine], the “RFU PLEKHG5 (11743358_a_at)” value is 38.46 RFU.
